From US20160376240A1, “6 Phenyl or 6 Pyridin 3 YL Indazole Derivatives and Methods of Use” (ABBVIE INC., priority 2014, published 2016)

Legend:
[1] = tested on: rat model of mono-iodoacetic acid induced osteoarthritis pain; assay: Osteoarthritis pain model, hind limb grip force in MIA-treated rats; format: in vivo; details: mean percent effect, ***p<0.001 vs vehicle-treated animals
Protocol: Members of the TrkA inhibitors described above were tested and found effective in reducing osteoarthritis pain. The compounds tested were assessed in an in vivo model well known to those skilled in the art, the rat model of mono-iodoacetic acid induced osteoarthritis pain. A general review of various models of pain can be found in Joshi and Honore, Expert Opinion in Drug Discovery (2004) 1, pp. 323-334, and in the book ‘Drug Discovery and Evaluation, 2nd edition (H. Gerhard Vogel, editor; Springer-Verlag, New York, 2002; pp. 702-706).
Pain behavior was assessed by measurement of hind limb grip force (GF) in adult osteoarthritic rats. Male Sprague Dawley rats, generally weighing 125-150 g, were injected in the unilateral knee join with a single intra-articular injection of sodium monoiodoacetate (MIA). Rats were tested at 21-28 days following MIA injection. A behavioral measure of activity-induced pain was carried out. Measurements of the peak hind limb grip force were conducted by recording the maximum compressive force (CFmax), in grams of force, exerted on a hind limb strain gauge setup, in a commercially available grip force measurement system (Columbus Instruments, Columbus, Ohio).
During testing, each rat was gently restrained by grasping it around its rib cage and then allowed to grasp the wire mesh frame attached to the strain gauge. The experimenter then moved the animal in a rostral-to-caudal direction until the grip was broken. Each rat was sequentially tested twice at an approximately 2-3 minute interval to obtain a raw mean grip force (CFmax). This raw mean grip force data was in turn converted to a maximum hindlimb cumulative compressive force (CFmax), as the grams of force/kg of body weight, for each animal.
For evaluating the compound effects, the hind limb grip force testing in the MIA-treated rats was conducted generally 30-60 minutes after dosing with the test compound. A group of age-matched nave (not injected with MIA) animals was added as a comparator to the drug-dosed groups. The vehicle control response for each group of MIA-treated animals was defined as the 0% response (0% effect), whereas the nave control group was defined as the normal response and as 100% effect. The % effect=(Treatment CFmax−Vehicle CFmax)/Vehicle CFmax]×100). Higher % effect numbers indicate increased relief from the pain in the model, with 100% indicating a return to the level of response seen in normal (non-osteoarthritic) animals. All experiments evaluating drug effects in this model were conducted in a randomized blinded fashion.
Male Sprague Dawley rats (generally 250-300 g body weight at the time of testing) obtained from Charles River Laboratories (Wilmington, Mass.) were used for all experiments, unless indicated otherwise. […]

TrkB = target: T1, TrkB (Homo sapiens, UniProt Q16620); assay: TrkB kinase inhibition, HTRF assay; format: biochemical; details: LCK peptide substrate, assay ATP concentration targeted 5 μM
T1 construct: purchased Invitrogen PV3616
Protocol: (§1) TrkA, TrkB, and TrkC enzymes were obtained from Invitrogen (as catalog numbers PV3144, PV3616, and PV3617, respectively). The ability of a compound to inhibit the enzymatic activity of the TrkA, TrkB, and TrkC enzymes was determined in separate assays. Enzyme activity was measured in an HTRF® (homogeneous time resolved fluorescence) assay, which detects enzymatic phosphorylation of a biotinylated synthetic peptide substrate (an LCK peptide analog, biotin-ahx-GAEEEIYAAFFA, from Genemed Synthesis). Phosphorylation is assessed by HTRF® in the presence of an anti-phosphotyrosine antibody conjugated to Eu^3+ cryptate (Cisbio) as donor fluorophore, and streptavidin conjugated to allophycocyanin (ProZyme) as acceptor fluorophore. The HTRF® signal was detected at two different wavelengths (620 nm and 665 nm) which were used to calculate the fluorescence ratio.
(§2) Each enzyme was titrated to a concentration optimized to ensure accurate measurement of the initial reaction rate. To allow the Trk enzymes to undergo activation and auto-phosphorylation, a 20 minute pre-incubation with ATP was carried out (at twice the final targeted enzyme and ATP concentration) prior to addition of test compound and the peptide substrate.
(§3) TrkA in vitro assays were performed by pre-incubating TrkA (2-10 nM) with ATP (200 μM) for 20 minutes at ambient temperature in 50 mM HEPES pH 7.4, 10 mM MgCl2, 2 mM MnCl2, 100 μM Na3VO4, 1 mM dithiothreitol, 0.01% BSA (bovine serum albumin). Then, to the activated Trk enzyme mixture was added the test compound in 2% dimethyl sulfoxide. After 10 minutes, the peptide substrate (125 nM) was added. After 1 hour, enzyme reactions were terminated by addition of equal reaction volumes of detection/stop reagent (containing 0.2 μg/mL anti-phosphotyrosine monoclonal antibody labeled with europium from Cisbio (catalog# PT66-K), and 4 μg/mL PhycoLink® Streptavidin-Allophycocyanin conjugate from ProZyme (catalog# PJ25S) in 60 mM EDTA in 40 mM HEPES pH 7.4, 480 mM KF, 0.01% Tween® 20 and 0.1% BSA bovine serum albumin) Reaction plates were stored at 4° C. overnight before reading the fluorescence ratio signal on a PerkinElmer EnVision™ fluorescence detector. Individual reaction wells were stopped at time points to obtain reaction rates. The test inhibitor compounds were assayed in duplicate, at half-log serial dilutions over a range of concentrations (e.g. starting at 50 μM or 5 μM as the high compound concentration). The percent Trk enzyme inhibition was calculated from the initial rates of the inhibited reactions relative to the uninhibited control. IC50 values were calculated by fitting the inhibition percent to the concentration of inhibitor [I] in the assay in equation 1 below, to solve for the IC50.
(§4) Inhibition %=100[I]/([I]+[IC50]) equation 1
(§5) The TrkB and TrkC in vitro assays were performed as described above, except that for these enzymes the assay ATP concentration targeted was 5 μM.

TrkC = target: T2, TrkC (Homo sapiens, UniProt Q16288); assay: TrkC kinase inhibition, HTRF assay; format: biochemical; details: LCK peptide substrate, assay ATP concentration targeted 5 μM
T2 construct: purchased Invitrogen PV3617
Protocol: as §1, §2, §3, §4, §5

TrkA = target: T3, TrkA (Homo sapiens, UniProt P04629); assay: TrkA kinase inhibition, HTRF assay; format: biochemical; details: LCK peptide substrate 125 nM, TrkA 2-10 nM pre-incubated with ATP 200 μM
T3 construct: purchased Invitrogen PV3144
Outline: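 TrkA (2-10 nM) preactivated 20 min with 200 μM ATP in HEPES pH 7.4 with Mg2+/Mn2+, then compound for 10 min, then 125 nM biotinylated LCK-peptide for 1 h at ambient temperature. HTRF 665/620 ratio read; IC50 fitted from initial-rate percent inhibition.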

T3 sequence (P04629 33-796): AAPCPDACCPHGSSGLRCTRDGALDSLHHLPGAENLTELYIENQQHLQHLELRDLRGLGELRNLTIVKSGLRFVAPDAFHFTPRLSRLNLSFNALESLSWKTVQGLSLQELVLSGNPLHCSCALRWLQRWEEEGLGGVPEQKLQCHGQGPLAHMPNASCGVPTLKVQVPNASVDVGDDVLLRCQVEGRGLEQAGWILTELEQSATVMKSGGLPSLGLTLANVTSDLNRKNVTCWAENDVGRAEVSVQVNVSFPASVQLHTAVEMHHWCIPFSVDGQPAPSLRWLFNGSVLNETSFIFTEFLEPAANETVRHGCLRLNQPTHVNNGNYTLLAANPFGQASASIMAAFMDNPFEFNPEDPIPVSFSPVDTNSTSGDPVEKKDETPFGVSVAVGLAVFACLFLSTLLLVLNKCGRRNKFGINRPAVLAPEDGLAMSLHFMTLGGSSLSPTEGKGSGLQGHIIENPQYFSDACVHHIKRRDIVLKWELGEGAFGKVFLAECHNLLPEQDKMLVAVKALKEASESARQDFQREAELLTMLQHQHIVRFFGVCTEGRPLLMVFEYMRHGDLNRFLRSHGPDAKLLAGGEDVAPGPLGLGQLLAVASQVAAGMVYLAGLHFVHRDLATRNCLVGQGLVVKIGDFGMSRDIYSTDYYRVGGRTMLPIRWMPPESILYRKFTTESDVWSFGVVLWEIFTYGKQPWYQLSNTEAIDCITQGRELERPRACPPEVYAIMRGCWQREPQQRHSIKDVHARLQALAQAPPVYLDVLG
T1 sequence (Q16620 32-822): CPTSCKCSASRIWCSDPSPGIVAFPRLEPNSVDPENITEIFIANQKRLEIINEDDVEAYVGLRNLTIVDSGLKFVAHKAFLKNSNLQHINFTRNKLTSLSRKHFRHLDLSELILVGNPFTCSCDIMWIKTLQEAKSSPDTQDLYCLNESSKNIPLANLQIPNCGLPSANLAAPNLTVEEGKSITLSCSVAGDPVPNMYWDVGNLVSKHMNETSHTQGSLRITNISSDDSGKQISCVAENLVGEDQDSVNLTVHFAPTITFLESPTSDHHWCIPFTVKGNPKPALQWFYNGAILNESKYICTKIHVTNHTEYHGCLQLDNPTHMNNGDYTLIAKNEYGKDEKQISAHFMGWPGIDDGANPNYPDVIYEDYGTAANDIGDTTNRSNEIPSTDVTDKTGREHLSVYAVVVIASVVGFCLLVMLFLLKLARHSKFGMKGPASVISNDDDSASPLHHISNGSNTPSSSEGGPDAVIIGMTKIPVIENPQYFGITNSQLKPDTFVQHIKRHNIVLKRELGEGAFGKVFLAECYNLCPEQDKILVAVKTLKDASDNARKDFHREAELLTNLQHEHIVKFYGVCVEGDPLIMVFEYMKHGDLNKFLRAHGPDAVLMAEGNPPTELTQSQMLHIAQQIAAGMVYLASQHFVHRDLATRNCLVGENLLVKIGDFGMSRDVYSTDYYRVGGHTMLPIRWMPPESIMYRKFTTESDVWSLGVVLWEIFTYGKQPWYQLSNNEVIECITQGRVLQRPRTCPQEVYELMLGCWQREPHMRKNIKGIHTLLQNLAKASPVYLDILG
T2 sequence (Q16288 32-839): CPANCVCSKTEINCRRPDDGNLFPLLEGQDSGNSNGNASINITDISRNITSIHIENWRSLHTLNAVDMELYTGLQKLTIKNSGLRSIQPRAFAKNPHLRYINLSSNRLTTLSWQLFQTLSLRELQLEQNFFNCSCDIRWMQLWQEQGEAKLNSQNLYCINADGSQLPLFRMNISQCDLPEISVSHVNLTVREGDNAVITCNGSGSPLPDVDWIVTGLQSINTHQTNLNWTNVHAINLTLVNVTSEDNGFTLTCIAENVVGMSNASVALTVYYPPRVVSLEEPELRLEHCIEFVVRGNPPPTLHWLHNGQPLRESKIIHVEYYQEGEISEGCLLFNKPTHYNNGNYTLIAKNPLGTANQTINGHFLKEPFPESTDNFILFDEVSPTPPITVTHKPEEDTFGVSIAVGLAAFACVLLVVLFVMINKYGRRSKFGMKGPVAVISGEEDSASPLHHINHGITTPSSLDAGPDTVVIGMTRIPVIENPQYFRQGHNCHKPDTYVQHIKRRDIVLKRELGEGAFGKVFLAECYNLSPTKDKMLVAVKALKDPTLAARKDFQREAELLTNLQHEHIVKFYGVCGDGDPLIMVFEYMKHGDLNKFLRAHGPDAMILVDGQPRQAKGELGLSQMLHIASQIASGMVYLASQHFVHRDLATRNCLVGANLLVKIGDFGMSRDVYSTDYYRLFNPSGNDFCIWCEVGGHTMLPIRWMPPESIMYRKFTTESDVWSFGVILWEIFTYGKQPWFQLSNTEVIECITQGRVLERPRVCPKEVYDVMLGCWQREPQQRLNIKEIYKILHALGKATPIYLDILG

In the case of `CNC(=O)c1ccc(-c2cc(OC3CCOCC3)c3c(N)n[nH]c3c2)cc1N1CCN(C2CCCCC2)CC1` [Example 29, 4-[3-amino-4-(tetrahydro-2H-pyran-4-yloxy)-1H-indazol-6-yl]-2-(4-cyclohexylpiperazin-1-yl)-N-methylbenzamide], the “% Effect” value ([1]; dose 100 mg/kg p.o.) is reported as 77%***, the IC50 (TrkB) is reported as 0.046 µM and the IC50 (TrkC) is reported as 0.0559 µM. It also gave an IC50 (TrkA) of 0.0979 µM.
For `CNC(=O)c1ccc(-c2cc(OC3CCOCC3)c3c(N)n[nH]c3c2)cc1N1CCN(CC(F)(F)F)CC1` [Example 108, 4-[3-amino-4-(tetrahydro-2H-pyran-4-yloxy)-1H-indazol-6-yl]-N-methyl-2-[4-(2,2,2-trifluoroethyl)piperazin-1-yl]benzamide], the “% Effect” value ([1]; dose 30 mg/kg p.o.) was 73%***, the IC50 (TrkB) was 0.0413 µM and the IC50 (TrkC) was 0.0522 µM. For the same compound, the IC50 (TrkA) was 0.0305 µM.
`CNC(=O)c1ccc(-c2cc(OC3CCOCC3)c3c(N)n[nH]c3c2)cc1N1CCN(c2ncc(F)cn2)CC1` [Example 113, 4-[3-amino-4-(tetrahydro-2H-pyran-4-yloxy)-1H-indazol-6-yl]-2-[4-(5-fluoropyrimidin-2-yl)piperazin-1-yl]-N-methylbenzamide] was tested, and the “% Effect” value ([1]; dose 30 mg/kg p.o.) was 89%*** and the IC50 (TrkA) was 0.00474 µM.
With `CNC(=O)c1ccc(-c2cc(OC3CCOCC3)c3c(C)n[nH]c3c2)cc1N1CCN(C(=O)OC(C)C)CC1` [Example 125, isopropyl 4-{2-(methylcarbamoyl)-5-[3-methyl-4-(tetrahydro-2H-pyran-4-yloxy)-1H-indazol-6-yl]phenyl}piperazine-1-carboxylate] the “% Effect” value ([1]; dose 30 mg/kg p.o.) was 85%***, the IC50 (TrkB) was 0.0032 µM and the IC50 (TrkC) was 0.00511 µM. It also gave an IC50 (TrkA) of 0.00798 µM.
